Laboratory results: paper PMC9516332 (Frontiers in Oncology, 2022)
Like-named read-outs stand apart in the source and are kept apart here.

Key:
AP-1060 (ETV6-NTRK3) = assay: Cell viability assay; settings: read-out: IC50 in cell proliferation assay
134 cancer cell lines = assay: Cell viability assay (ATPlite, 72 hours), IC50 on cancer cell line panel

SMILES: Cn1cnc2c(F)c(Nc3ccc(Br)cc3Cl)c(C(=O)NOCCO)cc21 [selumetinib]
- IC50 (AP-1060 (ETV6-NTRK3)): > 31.6 µM
- IC50 (134 cancer cell lines; HEC-6, read-out: IC50 in cell proliferation assay, HEC-6 cell line (EGFR p.A289V)): > 31600 nM
- IC50 (134 cancer cell lines; Homo sapiens, 769-P, read-out: IC50 in cell proliferation assay, cell line 769-P): 665 nM
- IC50 (134 cancer cell lines; Homo sapiens, 786-0, read-out: IC50 in cell proliferation assay, cell line 786-O): > 31600 nM
- IC50 (134 cancer cell lines; Homo sapiens, A 172, read-out: IC50 in cell proliferation assay, cell line A-172): 25300 nM
- IC50 (134 cancer cell lines; Homo sapiens, A204, read-out: IC50 in cell proliferation assay, cell line A-204): > 31600 nM
- IC50 (134 cancer cell lines; Homo sapiens, A498, read-out: IC50 in cell proliferation assay, cell line A-498): 137 nM
- IC50 (134 cancer cell lines; Homo sapiens, A549, read-out: IC50 in cell proliferation assay, cell line A-549): 132 nM
- IC50 (134 cancer cell lines; Homo sapiens, A704, read-out: IC50 in cell proliferation assay, cell line A-704): > 31600 nM
- IC50 (134 cancer cell lines; Homo sapiens, A-375, read-out: IC50 in cell proliferation assay, cell line A-375 (BRAF p.V600E)): 145 nM
- IC50 (134 cancer cell lines; Homo sapiens, A-427, read-out: IC50 in cell proliferation assay, cell line A-427): 1340 nM
- IC50 (134 cancer cell lines; Homo sapiens, ACHN, read-out: IC50 in cell proliferation assay, cell line ACHN): 14400 nM
- IC50 (134 cancer cell lines; Homo sapiens, AN3-CA, read-out: IC50 in cell proliferation assay, cell line AN3-CA (FGFR2 p.N549K)): 2330 nM
- IC50 (134 cancer cell lines; Homo sapiens, ASPC1, read-out: IC50 in cell proliferation assay, cell line AsPC-1): 210 nM
- IC50 (134 cancer cell lines; Homo sapiens, AU565, read-out: IC50 in cell proliferation assay, cell line AU565 (ERBB2 amplification)): > 31600 nM
- IC50 (134 cancer cell lines; Homo sapiens, BT-20, read-out: IC50 in cell proliferation assay, cell line BT-20): 9260 nM
- IC50 (134 cancer cell lines; Homo sapiens, BT-474, read-out: IC50 in cell proliferation assay, cell line BT-474 (ERBB2 amplification)): > 31600 nM
- IC50 (134 cancer cell lines; Homo sapiens, BT-549, read-out: IC50 in cell proliferation assay, cell line BT-549): > 31600 nM
- IC50 (134 cancer cell lines; Homo sapiens, BXPC-3, read-out: IC50 in cell proliferation assay, cell line BxPC-3): 472 nM
- IC50 (134 cancer cell lines; Homo sapiens, C-33-A, read-out: IC50 in cell proliferation assay, cell line C-33 A): 2.72 nM
- IC50 (134 cancer cell lines; Homo sapiens, CAL-27, read-out: IC50 in cell proliferation assay, cell line CAL-27): 61 nM
- IC50 (134 cancer cell lines; Homo sapiens, CCF-STTG1, read-out: IC50 in cell proliferation assay, cell line CCF-STTG1): > 31600 nM
- IC50 (134 cancer cell lines; Homo sapiens, CCRF-CEM, read-out: IC50 in cell proliferation assay, cell line CCRF-CEM): > 31600 nM
- IC50 (134 cancer cell lines; Homo sapiens, COLO 205, read-out: IC50 in cell proliferation assay, cell line COLO 205 (BRAF p.V600E)): 38 nM
- IC50 (134 cancer cell lines; Homo sapiens, COLO-829, read-out: IC50 in cell proliferation assay, cell line COLO 829 (BRAF p.V600E)): 117 nM
- IC50 (134 cancer cell lines; Homo sapiens, DLD-1, read-out: IC50 in cell proliferation assay, cell line DLD-1): 21400 nM
- IC50 (134 cancer cell lines; Homo sapiens, DU-4475, read-out: IC50 in cell proliferation assay, cell line DU4475 (BRAF p.V600E)): 88 nM
- IC50 (134 cancer cell lines; Homo sapiens, Daoy, read-out: IC50 in cell proliferation assay, cell line Daoy): > 31600 nM
- IC50 (134 cancer cell lines; Homo sapiens, DoTc2-4510, read-out: IC50 in cell proliferation assay, cell line DoTc2 4510): 32 nM
- IC50 (134 cancer cell lines; Homo sapiens, EOL1, read-out: IC50 in cell proliferation assay, cell line EoL-1 (FIP1L1-PDGFRA)): 92 nM
- IC50 (134 cancer cell lines; Homo sapiens, FaDu, read-out: IC50 in cell proliferation assay, cell line FaDu): 73 nM
- IC50 (134 cancer cell lines; Homo sapiens, G-361, read-out: IC50 in cell proliferation assay, cell line G-361 (BRAF p.V600E)): 225 nM
- IC50 (134 cancer cell lines; Homo sapiens, HCC827, read-out: IC50 in cell proliferation assay, cell line HCC827 (EGFR exon19del)): 9710 nM
- IC50 (134 cancer cell lines; Homo sapiens, HCC4006, read-out: IC50 in cell proliferation assay, cell line HCC4006 (EGFR exon19del)): 26800 nM
- IC50 (134 cancer cell lines; Homo sapiens, HCT-15, read-out: IC50 in cell proliferation assay, cell line HCT 15): > 31600 nM
- IC50 (134 cancer cell lines; Homo sapiens, HCT-116, read-out: IC50 in cell proliferation assay, cell line HCT 116): 2.26 nM
- IC50 (134 cancer cell lines; Homo sapiens, HEC-1, read-out: IC50 in cell proliferation assay, HEC-1 cell line): > 31600 nM
- IC50 (134 cancer cell lines; Homo sapiens, HEC-1B, read-out: IC50 in cell proliferation assay, HEC-1-B cell line (EGFR p.A864V)): 27 nM
- IC50 (134 cancer cell lines; Homo sapiens, HL-60, read-out: IC50 in cell proliferation assay, HL-60 cell line): 13 nM
- IC50 (134 cancer cell lines; Homo sapiens, HT, read-out: IC50 in cell proliferation assay, HT cell line): 14800 nM
- IC50 (134 cancer cell lines; Homo sapiens, HT-1080, read-out: IC50 in cell proliferation assay, HT-1080 cell line): 132 nM
- IC50 (134 cancer cell lines; Homo sapiens, Hs746T, read-out: IC50 in cell proliferation assay, Hs 746.T cell line (MET exon14skip + amplification)): 19400 nM
- IC50 (134 cancer cell lines; Homo sapiens, Hs-578T, read-out: IC50 in cell proliferation assay, Hs 578T cell line): 78 nM
- IC50 (134 cancer cell lines; Homo sapiens, HuTu80, read-out: IC50 in cell proliferation assay, HuTu 80 cell line): 413 nM
- IC50 (134 cancer cell lines; Homo sapiens, J82, read-out: IC50 in cell proliferation assay, J82 cell line): 265 nM
- IC50 (134 cancer cell lines; Homo sapiens, Jurkat E6.1, read-out: IC50 in cell proliferation assay, Jurkat E6.1 cell line): > 31600 nM
- IC50 (134 cancer cell lines; Homo sapiens, K562, read-out: IC50 in cell proliferation assay, K-562 cell line): 241 nM
- IC50 (134 cancer cell lines; Homo sapiens, KATO III, read-out: IC50 in cell proliferation assay, KATO III cell line (FGFR2 amplification)): 16500 nM
- IC50 (134 cancer cell lines; Homo sapiens, KG-1, read-out: IC50 in cell proliferation assay, KG-1 cell line (FGFR1OP2-FGFR1)): 10 nM
- IC50 (134 cancer cell lines; Homo sapiens, KLE, read-out: IC50 in cell proliferation assay, KLE cell line): > 31600 nM
- IC50 (134 cancer cell lines; Homo sapiens, KMS-11, read-out: IC50 in cell proliferation assay, KMS-11 cell line (FGFR3 p.Y373C)): > 31600 nM
- IC50 (134 cancer cell lines; Homo sapiens, KU812, read-out: IC50 in cell proliferation assay, Ku812 cell line): 73 nM
- IC50 (134 cancer cell lines; Homo sapiens, Kasumi 1, read-out: IC50 in cell proliferation assay, Kasumi-1 cell line (KIT p.N822K)): 345 nM
- IC50 (134 cancer cell lines; Homo sapiens, LC-2-ad, read-out: IC50 in cell proliferation assay, LC-2/ad cell line (CCDC6-RET)): 31000 nM
- IC50 (134 cancer cell lines; Homo sapiens, LNCaP-Clone-FGC, read-out: IC50 in cell proliferation assay, LNCaP clone FGC cell line): > 31600 nM
- IC50 (134 cancer cell lines; Homo sapiens, LS174T, read-out: IC50 in cell proliferation assay, LS174T cell line): 177 nM
- IC50 (134 cancer cell lines; Homo sapiens, LS-411N, read-out: IC50 in cell proliferation assay, LS411N cell line (BRAF p.V600E)): 75 nM
- IC50 (134 cancer cell lines; Homo sapiens, LoVo, read-out: IC50 in cell proliferation assay, LoVo cell line): 34 nM
- IC50 (134 cancer cell lines; Homo sapiens, MCF7, read-out: IC50 in cell proliferation assay, MCF-7 cell line): > 31600 nM
- IC50 (134 cancer cell lines; Homo sapiens, MDA-MB-231, read-out: IC50 in cell proliferation assay, MDA-MB-231 cell line): 1000 nM
- IC50 (134 cancer cell lines; Homo sapiens, MDA-MB-453, read-out: IC50 in cell proliferation assay, MDA-MB-453 cell line): 9170 nM
- IC50 (134 cancer cell lines; Homo sapiens, MDA-MB-468, read-out: IC50 in cell proliferation assay, MDA-MB-468 cell line): > 31600 nM
- IC50 (134 cancer cell lines; Homo sapiens, MG-63, read-out: IC50 in cell proliferation assay, MG-63 cell line): 6090 nM
- IC50 (134 cancer cell lines; Homo sapiens, MIA PaCa-2, read-out: IC50 in cell proliferation assay, MIA PaCa-2 cell line): 221 nM
- IC50 (134 cancer cell lines; Homo sapiens, MKN-45, read-out: IC50 in cell proliferation assay, MKN45 cell line (MET amplification)): 2680 nM
- IC50 (134 cancer cell lines; Homo sapiens, MOLM-13, read-out: IC50 in cell proliferation assay, MOLM-13 cell line (FLT3 ITD)): 822 nM
- IC50 (134 cancer cell lines; Homo sapiens, MOLT-4, read-out: IC50 in cell proliferation assay, MOLT-4 cell line): > 31600 nM
- IC50 (134 cancer cell lines; Homo sapiens, MV4-11, read-out: IC50 in cell proliferation assay, MV4-11 cell line (FLT3 ITD)): 178 nM
